Structures are written as SMILES.

The experiment concerns the target T1, hP2X3 (human Purinergic P2X receptors subtype 3), clone B (Homo sapiens, UniProt P56373).
T1 sequence (P56373 1-397): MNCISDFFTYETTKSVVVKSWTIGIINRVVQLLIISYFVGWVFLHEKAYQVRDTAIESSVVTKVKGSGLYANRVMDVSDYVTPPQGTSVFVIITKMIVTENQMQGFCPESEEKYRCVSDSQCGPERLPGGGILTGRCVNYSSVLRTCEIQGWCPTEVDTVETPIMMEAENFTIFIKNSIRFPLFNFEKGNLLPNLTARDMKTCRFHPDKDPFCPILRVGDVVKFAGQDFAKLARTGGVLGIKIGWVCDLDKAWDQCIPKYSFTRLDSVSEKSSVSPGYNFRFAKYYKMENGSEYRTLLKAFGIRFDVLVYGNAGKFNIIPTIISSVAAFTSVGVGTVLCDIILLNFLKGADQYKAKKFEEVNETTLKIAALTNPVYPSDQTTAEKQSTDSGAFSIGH
Put plainly: hP2X3 FLIPR calcium (Fluo-4) antagonist assay, clone B. To be noted: Human P2X3 FLIPR Clone B IC50 (nM), RLE cells expressing hP2X3 clone B (NM_002559); agonist 500 nM α,β-methylene-ATP.
The term IC50 denotes the concentration needed to halve the response being measured. Take `Cc1ccc(C(Nc2nc(N3CCOCC3)nc3c2CN(C(C)C)C3=O)c2ccccc2)cc1` (stereo not shown) [Example 76, 6-isopropyl-2-morpholin-4-yl-[(phenyl-p-tolyl-methyl)-amino]-5,6-dihydro-pyrrolo[3,4-d]pyrimidin-7-one]: the IC50 stood at 230 nM.

For `CC(=O)N1CCN(c2nc(NC(C)c3ccc(Cl)cc3)c3c(n2)C(=O)N(C(C)C)C3)CC1` (stereo not shown) [Example 53, 2-(4-acetylpiperazin-1-yl)-4-{[1-(4-chlorophenyl)ethyl]amino}-6-isopropyl-5,6-dihydro-7H-pyrrolo[3,4-d]pyrimidin-7-one], the half-maximal inhibitory concentration (IC50) amounted to 750 nM.

As to `CC(=O)N1CCN(c2nc3c(c(N4CCC[C@@H]4C(=O)OC(C)(C)C)n2)CN(C(C)C)C3=O)CC1` [Example 277, tert-butyl (2R)-1-[4-(4-acetylpiperazin-1-yl)-7-oxo-8-propan-2-yl-3,5,8-triazabicyclo[4.3.0]nona-1,3,5-trien-2-yl]pyrrolidine-2-carboxylate], the half-maximal inhibitory concentration (IC50) amounted to 7700 nM. Turning to `CC(=O)N1CCN(c2nc(NC(c3ccc(C(C)C)cc3)C(C)C)c3c(n2)C(=O)N(C(C)C)C3)CC1` (stereo not shown) [Example 10, 2-(4-acetylpiperazin-1-yl)-6-isopropyl-4-{[1-(4-isopropylphenyl)-2-methylpropyl]amino}-5,6-dihydro-7H-pyrrolo[3,4-d]pyrimidin-7-one], the IC50 amounted to 1200 nM. Take `CC(C)N1Cc2c(NC(c3ccccc3)c3ccccc3)nc(NCCN(C)C)nc2C1=O` [Example 97, 4-(Benzhydryl-amino)-2-(2-dimethylamino-ethylamino)-6-isopropyl-5,6-dihydro-pyrrolo[3,4-d]pyrimidin-7-one]: the concentration for half-maximal inhibition (IC50) came to 230 nM. With `CC(C)N1Cc2c(NC3c4cccnc4CCc4c(F)cccc43)nc(NCCN(C)C)nc2C1=O` (stereo not shown) [Example 21, 2-{[2-(dimethylamino)ethyl]amino}-4-[(9-fluoro-10,11-dihydro-5H-benzo[4,5]cyclohepta[1,2-b]pyridin-5-yl)amino]-6-isopropyl-5,6-dihydro-7H-pyrrolo[3,4-d]pyrimidin-7-one], the IC50 worked out at 140 nM. For the compound `CC(=O)N1CCN(c2nc(Nc3cccc(C(C)C)c3)c3c(n2)C(=O)N(C(C)C)C3)CC1` [Example 105, 2-(4-Acetyl-piperazin-1-yl)-6-isopropyl-4-(3-isopropyl-phenylamino)-5,6-dihydro-pyrrolo[3,4-d]-pyrimidin-7-one], the IC50 was found to be 9300 nM. Take `CCOc1cccc([C@@H](C)Nc2nc(N3CCN(C(C)=O)CC3)nc3c2CN(C(C)C)C3=O)c1` [Example 156, (R)-2-(4-acetylpiperazin-1-yl)-4-(1-(3-ethoxyphenyl)ethylamino)-6-isopropyl-5H-pyrrolo[3,4-d]pyrimidin-7(6H)-one]: the IC50 was determined as 830 nM. For `CC(=O)N1CCN(c2nc3c(c(N(Cc4ccccc4)CC4CC4)n2)CN(C(C)C)C3=O)CC1` [Example 51, 2-(4-acetylpiperazin-1-yl)-4-[benzyl(cyclopropylmethyl)amino]-6-isopropyl-5,6-dihydro-7H-pyrrolo[3,4-d]pyrimidin-7-one] the value was 2700 nM; for `CC(=O)N1CCN(c2nc(NCc3cnc4ccccc4c3)c3c(n2)C(=O)N(C(C)C)C3)C(C)C1` (stereo not shown) [Example 352, 2-(4-Acetyl-2-methylpiperazin-1-yl)-6-isopropyl-4-(quinolin-3-ylmethylamino)-5H-pyrrolo[3,4-d]pyrimidin-7(6M)-one], 200 nM; for `CC(C)N1Cc2c(NC(c3ccc(F)cc3)c3ccc(F)cc3)nc(N3CC4CC3CN4C)nc2C1=O` (stereo not shown) [Example 23, 4-{[bis(4-fluorophenyl)methyl]amino}-6-isopropyl-2-(5-methyl-2,5-diazabicyclo[2.2.1]hept-2-yl)-5,6-dihydro-7H-pyrrolo[3,4-d]pyrimidin-7-one], 210 nM.

On to `CC(C)N1Cc2c(NCc3cnc4ccccc4c3)nc(N3CCN(S(C)(=O)=O)CC3)nc2C1=O` [Example 329, 6-(1-methylethyl)-2-[4-(methylsulfonyl)piperazin-1-yl]-4-[(quinolin-3-ylmethyl)amino]-5,6-dihydro-7H-pyrrolo[3,4-d]pyrimidin-7-one], for which the half-maximal inhibitory concentration (IC50) is 8900 nM.

As for `CC(=O)N1CCN(c2nc(NC(C)c3ccc(C(C)(C)C)cc3)c3c(n2)C(=O)N(C(C)C)C3)CC1` (stereo not shown) [Example 5, 2-(4-acetylpiperazin-1-yl)-4-{[1-(4-tert-butylphenyl)ethyl]amino}-6-isopropyl-5,6-dihydro-7H-pyrrolo[3,4-d]pyrimidin-7-one], the 50% inhibitory concentration (IC50) came to 440 nM. For `CC(C)N1Cc2c(NC(c3ccccc3)c3ccccc3)nc(N3CCN(C(=O)C4CC4)CC3)nc2C1=O` [Example 79, 4-(Benzhydryl-amino)-2-(4-cyclopropanecarbonyl-piperazin-1-yl)-6-isopropyl-5,6-dihydro-pyrrolo[3,4-d]pyrimidin-7-one], the 50% inhibitory concentration (IC50) was determined as 130 nM. For `CC(=O)N1CCN(c2nc3c(c(N(C)Cc4cc5ccccc5nc4C)n2)CN(C(C)C)C3=O)CC1` [Example 347, 2-(4-acetylpiperazin-1-yl)-6-isopropyl-4-(methyl((2-methylquinolin-3-yl)methyl)amino)-5H-pyrrolo[3,4-d]pyrimidin-7(6H)-one] the value was 2900 nM; for `CC(C)N1Cc2c(nc(NCCN(C)C)nc2N(Cc2ccccc2)Cc2ccccc2)C1=O` [Example 106, 4-Dibenzylamino-2-(2-dimethylamino-ethylamino)-6-isopropyl-5,6-dihydro-pyrrolo[3,4-d]-pyrimidin-7-one], 5300 nM; for `CCOc1ccc(CC2CCCN2c2nc(N3CCN(C(C)=O)CC3)nc3c2CN(C(C)C)C3=O)cc1` (stereo not shown) [Example 289, 2-(4-acetylpiperazin-1-yl)-4-[2-[(4-ethoxyphenyl)methyl]pyrrolidin-1-yl]-6-isopropyl-5H-pyrrolo[4,3-e]pyrimidin-7-one], 330 nM. For `CCN1CCN(c2nc(NC(c3ccccc3)c3ccc(Cl)cc3)c3c(n2)C(=O)N(C(C)C)C3)CC1` (stereo not shown) [Example 18, 4-{[(4-chlorophenyl)(phenyl)methyl]amino}-2-(4-ethylpiperazin-1-yl)-6-isopropyl-5,6-dihydro-7H-pyrrolo[3,4-d]pyrimidin-7-one] the value was 180 nM. For `CC(C)N1Cc2c(NCC(c3ccccc3)c3ccccc3)nc(NCCCN(C)C)nc2C1=O` [Example 108, 2-(3-Dimethylamino-propylamino)-4-(2,2-diphenyl-ethylamino)-6-isopropyl-5,6-dihydro-pyrrolo[3,4-d]pyrimidin-7-one] the value was 4400 nM; for `CC(=O)N1CCN(c2nc3c(c(N4CCC[C@@H]4C(=O)NC4CCCCC4)n2)CN(C(C)C)C3=O)CC1` [Example 302, (2R)-1-[4-(4-acetylpiperazin-1-yl)-7-oxo-8-propan-2-yl-3,5,8-triazabicyclo[4.3.0]nona-1,3,5-trien-2-yl]-N-cyclohexyl-pyrrolidine-2-carboxamide], 3100 nM. In the case of `CCCc1ccc(C(C)Nc2nc(N3CCN(C(C)=O)CC3)nc3c2CN(C(C)C)C3=O)cc1` (stereo not shown) [Example 29, 2-(4-acetylpiperazin-1-yl)-6-isopropyl-4-{[1-(4-propylphenyl)ethyl]amino}-5,6-dihydro-7H-pyrrolo[3,4-d]pyrimidin-7-one], the IC50 worked out at 160 nM. For `CC(=O)N1CCN(c2nc(NCCc3ccc(C)c(C)c3)c3c(n2)C(=O)N(C(C)C)C3)CC1` [Example 55, 2-(4-acetylpiperazin-1-yl)-4-{[2-(3,4-dimethylphenyl)ethyl]amino}-6-isopropyl-5,6-dihydro-7H-pyrrolo[3,4-d]pyrimidin-7-one] the value was 9700 nM; for `CC(=O)NCCNc1nc2c(c(N3CCCC3Cc3ccc(Cl)cc3)n1)CN(C(C)C)C2=O` (stereo not shown) [Example 45, N-[2-({4-[2-(4-chlorobenzyl)pyrrolidin-1-yl]-6-isopropyl-7-oxo-6,7-dihydro-5H-pyrrolo[3,4-d]pyrimidin-2-yl}amino)ethyl]acetamide], 2200 nM; for `CC(C)N1Cc2c(NCc3cnc4ccccc4c3)nc(NCC3CCOCC3)nc2C1=O` [Example 219, 6-(1-methylethyl)-4-[(quinolin-3-ylmethyl)amino]-2-[(tetrahydro-2H-pyran-4-ylmethyl)amino]-5,6-dihydro-7H-pyrrolo[3,4-d]pyrimidin-7-one], 8400 nM. The figure for `CC(=O)N1CCN(c2nc3c(c(N4CCCCC4Cc4ccccc4)n2)CN(C(C)C)C3=O)CC1` (stereo not shown) [Example 266, 4-(4-acetylpiperazin-1-yl)-2-(2-benzyl-1-piperidyl)-8-propan-2-yl-3,5,8-triazabicyclo[4.3.0]nona-1,3,5-trien-7-one] is 1000 nM; for `CC(=O)NC1CCN(c2nc(NC(C)(C)Cc3ccc(Cl)cc3)c3c(n2)C(=O)N(C(C)C)C3)C1` (stereo not shown) [Example 62, N-[1-(4-{[2-(4-chlorophenyl)-1,1-dimethylethyl]amino}-6-isopropyl-7-oxo-6,7-dihydro-5H-pyrrolo[3,4-d]pyrimidin-2-yl)pyrrolidin-3-yl]acetamide] it is 340 nM. Regarding `CCOc1ccccc1[C@@H](C)Nc1nc(N2CCN(C(C)=O)CC2)nc2c1CN(C(C)C)C2=O` [Example 173, (R)-2-(4-acetylpiperazin-1-yl)-4-(1-(2-ethoxyphenyl)ethylamino)-6-isopropyl-5H-pyrrolo[3,4-d]pyrimidin-7(6H)-one], the IC50 amounted to 5400 nM. For `O=C1c2nc(N3CCOCC3)nc(NC(c3ccccc3)c3ccccc3)c2CN1C1CC1` [Example 74, 4-(Benzhydryl-amino)-6-cyclopropyl-2-morpholin-4-yl-5,6-dihydro-pyrrolo[3,4-d]pyrimidin-7-one] the value was 4300 nM.

These data come from patent US20090099195A1 (ASTRAZENECA AB, priority 2007, published 2009).
